These results are taken from PubChem BioAssay AID1963426 (Molecular Pharmacology Branch, DTP, NCI, 2024).

Several values for one entry are separate records, joined by “and”; a condition that tells them apart may be missing. Equal values may be shown once.

The assay relates to 186277-243-T-J2-PDC complex spheroid growth, % test/control. Put plainly: Anticancer human tumor 186277-243-T-J2-PDC patient-derived colon adenocarcinoma cell line growth inhibition [Asc]. Particulars: for viability, T/C: stronger effect = lower value. The method, boiled down: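 Concentration series start at each agent's clinical Cmax, or at 10 microM when none is established, and drop in half-log steps; agents are applied alone or together to complex spheroids built with HUVEC and hMSC.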

Setting [1] is: curve of first compound, second compound 0.1 µM.
[2] abbreviates: curve of first compound, second compound 0.316 µM.
Where [3] appears, read: curve of first compound, second compound 1 µM.
The mark [4] stands for this setting: second compound 0.1 µM, first compound 0.00949 µM.
[5] abbreviates: second compound 0.1 µM, first compound 0.03 µM.
The mark [6] stands for this setting: second compound 0.1 µM, first compound 0.0949 µM.
[7] abbreviates: second compound 0.1 µM, first compound 0.3 µM.
Where [8] appears, read: second compound 0.1 µM, first compound 0.949 µM.
The mark [9] stands for this setting: second compound 0.1 µM, first compound 3 µM.
Setting [10] is: second compound 0.316 µM, first compound 0.00949 µM.
The mark [11] stands for this setting: second compound 0.316 µM, first compound 0.03 µM.
[12] abbreviates: second compound 0.316 µM, first compound 0.0949 µM.
The mark [13] stands for this setting: second compound 0.316 µM, first compound 0.3 µM.
[14] abbreviates: second compound 0.316 µM, first compound 0.949 µM.
Where [15] appears, read: second compound 0.316 µM, first compound 3 µM.
[16] abbreviates: second compound 1 µM, first compound 0.00949 µM.
Setting [17] is: second compound 1 µM, first compound 0.03 µM.
Setting [18] is: second compound 1 µM, first compound 0.0949 µM.
[19] abbreviates: second compound 1 µM, first compound 0.3 µM.
Where [20] appears, read: second compound 1 µM, first compound 0.949 µM.
Setting [21] is: second compound 1 µM, first compound 3 µM.
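Note: spheroids exposed to agents for 7 days.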
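Throughout, for viability, T/C: 100% = DMSO vehicle control wells.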

By IC50 is commonly meant the concentration at which inhibition is half-maximal. By viability, T/C is commonly meant the result in the treated group divided by that in the control group, in per cent. For the compound `Cc1nc(N2CCC3(CC2)COC(C)C3N)c(CO)nc1Sc1ccnc(N)c1Cl` (centres undefined) + CNC(C)C(=O)NC1CN(S(=O)(=O)c2cccc(S(=O)(=O)N3CCC4CCC(C(=O)NC(c5ccccc5)c5ccccc5)N4C(=O)C(NC(=O)C(C)NC)C3)c2)CCC2CCC(C(=O)NC(c3ccccc3)c3ccccc3)N2C1=O, the IC50 is above 3 µM (curve of first compound, second compound 0.01 µM); above 3 µM (curve of first compound, second compound 0.0316 µM); above 3 µM under setting [1]; above 3 µM under setting [2]; above 3 µM under setting [3]. The viability, T/C reads like this: (second compound 0.01 µM, first compound 0.00949 µM) 106%; (second compound 0.01 µM, first compound 0.03 µM) 102%; (second compound 0.01 µM, first compound 0.0949 µM) 112%; (second compound 0.01 µM, first compound 0.3 µM) 93%; (second compound 0.01 µM, first compound 0.949 µM) 97.8%; (second compound 0.01 µM, first compound 3 µM) 106%. The viability, T/C is, setting by setting: (second compound 0.0316 µM, first compound 0.00949 µM) 98.8%; (second compound 0.0316 µM, first compound 0.03 µM) 111%; (second compound 0.0316 µM, first compound 0.0949 µM) 107%; (second compound 0.0316 µM, first compound 0.3 µM) 91.6%; (second compound 0.0316 µM, first compound 0.949 µM) 104%; (second compound 0.0316 µM, first compound 3 µM) 104%. For the same compound, the viability, T/C by setting is: under setting [4], 107%; under setting [5], 101%; under setting [6], 103%; under setting [7], 97.7%; under setting [8], 102%; under setting [9], 119%. In addition, the viability, T/C is 96% under setting [10]; 104% under setting [11]; 106% under setting [12]; 103% under setting [13]; 101% under setting [14]; 100% under setting [15]. Further, the viability, T/C reads like this: under setting [16], 112%; under setting [17], 110%; under setting [18], 99.6%; under setting [19], 102%; under setting [20], 105%; under setting [21], 101%.

Regarding `O=C(c1cc(Cc2n[nH]c(=O)c3ccccc23)ccc1F)N1CCN(C(=O)C2CC2)CC1`, the viability, T/C is 98.1% and 91.9% and 98.5% (compound 0.0316 µM); 95.8% and 101% and 97.5% (compound 0.1 µM); 94.8% and 99% and 102% (compound 0.316 µM); 95.9% and 94.6% and 98.1% (compound 1 µM); 105% and 117% and 121% (compound 3.16 µM); 103% and 112% and 135% (compound 10 µM). In addition, under “curve of compound”, the half-maximal inhibitory concentration (IC50) is above 10 µM.

Take `Cc1nc(N2CCC3(CC2)COC(C)C3N)c(CO)nc1Sc1ccnc(N)c1Cl` (centres undefined) + Cc1c(S(C)(=O)=O)c(-c2cc(F)cc(N3CCN(c4ccc(NS(=O)(=O)c5ccc(NC(CCN6CCC(C(=O)OCCCP(=O)(O)O)CC6)CSc6ccccc6)c(S(=O)(=O)C(F)(F)F)c5)cc4)CC3)c2)c(-c2ccc(Cl)cc2)n1C(C)C: the IC50 is above 3 µM under setting [1]; above 3 µM under setting [2]; above 3 µM under setting [3]; above 3 µM (curve of first compound, second compound 3.16 µM); above 3 µM (curve of first compound, second compound 10 µM). Besides, the viability, T/C under setting [4] was 112%; the viability, T/C under setting [5] is 99%; the viability, T/C under setting [6] is 106%; the viability, T/C under setting [7] is 116%; the viability, T/C under setting [8] was 98.1%; the viability, T/C under setting [9] was 96.1%. The viability, T/C is 116% under setting [10]; 94.9% under setting [11]; 112% under setting [12]; 117% under setting [13]; 107% under setting [14]; 110% under setting [15]. In addition, the viability, T/C is 116% under setting [16]; 97.7% under setting [17]; 114% under setting [18]; 121% under setting [19]; 126% under setting [20]; 107% under setting [21]. Moreover, the viability, T/C runs as follows: (second compound 3.16 µM, first compound 0.00949 µM) 112%; (second compound 3.16 µM, first compound 0.03 µM) 104%; (second compound 3.16 µM, first compound 0.0949 µM) 111%; (second compound 3.16 µM, first compound 0.3 µM) 115%; (second compound 3.16 µM, first compound 0.949 µM) 111%; (second compound 3.16 µM, first compound 3 µM) 121%. In addition, the viability, T/C is, setting by setting: (second compound 10 µM, first compound 0.00949 µM) 97.6%; (second compound 10 µM, first compound 0.03 µM) 96.3%; (second compound 10 µM, first compound 0.0949 µM) 115%; (second compound 10 µM, first compound 0.3 µM) 104%; (second compound 10 µM, first compound 0.949 µM) 100%; (second compound 10 µM, first compound 3 µM) 111%.

Consider `NC(=O)C(=Cn1cnc(-c2cc(C(F)(F)F)cc(C(F)(F)F)c2)n1)c1cncnc1`, for which the viability, T/C (compound 0.000949 µM) is 99.3% and 89.8% and 97.7%; the viability, T/C (compound 0.003 µM) is 80.2% and 78.8% and 94.8%; the viability, T/C (compound 0.00949 µM) was 96.9% and 100% and 103%; the viability, T/C (compound 0.03 µM) is 96.2% and 77.8% and 106%; the viability, T/C (compound 0.0949 µM) was 81.6% and 71.7% and 101%; the viability, T/C (compound 0.3 µM) was 12.6% and 11.8% and 30.5%. Moreover, the 50% inhibitory concentration (IC50) (curve of compound) is 0.161 µM and 0.141 µM and 0.218 µM.
